Source: article PMC12508057, “Discovery of ETI41 and ETI60: novel selective endosomal Toll-like receptor inhibitors for the treatment of autoimmune diseases” (Experimental & Molecular Medicine, 2025)

What was measured:
TLR1/TLR2 = experiment: Surface TLR specificity, TNF-α secretion in differentiated THP-1; assay type: cell-based, human; conditions: 2 and 5 μM, differentiated THP-1, FSL-1
Protocol: (§1) RAW 264.7 and differentiated THP-1 cells were seeded into 96-well plates at 2 × 10^4 cells per well, while Daudi cells were seeded at 5 × 10^4 cells per well. After stabilization for 30 min, cells were stimulated with specific TLR agonists for 4 or 24 h. Supernatants were diluted and transferred to precoated ELISA plates to measure TNF-α secretion using kits from Invitrogen. Optical absorbance was measured using a BioTek Synergy HTX multimode microplate reader, and data were interpolated using BioTek Gen5 software.
(§2) The cells were activated with agonistic ligands: […], TLR3 (poly I:C, 2 μg/ml, 24 h), TLR4 (LPS, 10 or 100 ng/ml, 4 h), TLR5 (FLA-ST, 500 ng/ml, 4 h), TLR7 (ORN06/LyoVec, 2 μg/ml, 24 h; and IMQ, 1 μg/ml, 4 h), TLR8 (TL8-506, 2 μg/ml, 24 h) and TLR9 (ODN2395, 1 μM, 4 h) at various concentrations in RAW 264.7 cells, human Daudi cells and THP-1 cells. Data are from at least three independent experiments (n = 3) and statistical differences between the induced case and other cases were analyzed and verified using a one-tailed Student’s t-test (*P < 0.05, **P < 0.01, ***P < 0.001).
(§3) Given the structural similarities among TLR family proteins, achieving high selectivity is challenging. We tested the effects of ETI41 and ETI60 on various surface TLRs to determine their specificity. […] TLRs activate transcription factors, including NF-κB, MAPKs, c-Jun N-terminal kinase (JNK), extracellular signal-regulated kinase (ERK) and IRF7, which regulate cellular functions such as proliferation and apoptosis. Western blot analysis confirmed that ETI41 and ETI60 inhibited IMQ- or ODN2395-induced phosphorylation of MAPKs (p-ERK, p-JNK and p-p38), nuclear translocation of the NF-κB p65 subunit, Iκ-Bα degradation and IRF7 expression in RAW 264.7 cells (Fig. 2a–c and Supplementary Figs. 2 and 3).

TLR2/TLR6 = experiment: as above; assay type: cell-based, human; conditions: 2 and 5 μM, differentiated THP-1, Pam3CSK4
Protocol: as §1, §2, §3

TLR4 = molecular target: T1, TLR4 (Homo sapiens, UniProt O00206); experiment: as above; assay type: cell-based; conditions: 2 and 5 μM, differentiated THP-1, LPS
T1 construct: in differentiated human THP-1 cells; endogenous in cells; host or cells: differentiated THP-1
T1 sequence (O00206 24-839): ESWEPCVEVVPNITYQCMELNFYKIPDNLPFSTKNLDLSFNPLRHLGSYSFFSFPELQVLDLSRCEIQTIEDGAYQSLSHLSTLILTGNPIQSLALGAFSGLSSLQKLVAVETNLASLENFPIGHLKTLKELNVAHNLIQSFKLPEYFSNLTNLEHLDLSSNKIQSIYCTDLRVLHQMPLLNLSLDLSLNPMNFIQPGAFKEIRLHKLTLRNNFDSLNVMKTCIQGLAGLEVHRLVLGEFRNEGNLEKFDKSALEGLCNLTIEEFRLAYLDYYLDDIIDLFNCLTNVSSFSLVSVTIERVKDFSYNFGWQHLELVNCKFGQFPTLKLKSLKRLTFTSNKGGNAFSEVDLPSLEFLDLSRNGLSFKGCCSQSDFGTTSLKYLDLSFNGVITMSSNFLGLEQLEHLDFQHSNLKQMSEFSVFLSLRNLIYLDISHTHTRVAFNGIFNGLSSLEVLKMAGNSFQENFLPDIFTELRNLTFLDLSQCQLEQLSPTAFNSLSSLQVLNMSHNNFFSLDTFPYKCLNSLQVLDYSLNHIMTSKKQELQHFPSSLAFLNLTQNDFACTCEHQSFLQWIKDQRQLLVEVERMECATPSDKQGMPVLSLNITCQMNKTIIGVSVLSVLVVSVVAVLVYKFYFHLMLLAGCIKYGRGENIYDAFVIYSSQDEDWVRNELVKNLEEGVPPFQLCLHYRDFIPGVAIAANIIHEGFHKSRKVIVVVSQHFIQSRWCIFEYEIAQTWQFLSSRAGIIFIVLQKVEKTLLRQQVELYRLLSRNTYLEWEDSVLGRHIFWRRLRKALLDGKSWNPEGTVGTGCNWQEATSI
T1 sequence (Q9Y6Y9 19-160 partner): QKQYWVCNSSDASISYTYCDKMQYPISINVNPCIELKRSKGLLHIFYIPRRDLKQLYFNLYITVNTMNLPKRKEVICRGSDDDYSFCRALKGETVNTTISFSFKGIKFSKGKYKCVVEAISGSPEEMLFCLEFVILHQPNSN
Protocol: as §1, §2, §3

TLR5 = molecular target: T2, TLR5 (Homo sapiens, UniProt O60602); experiment: as above; assay type: cell-based; conditions: 2 and 5 μM, differentiated THP-1, FLA-ST
T2 construct: in differentiated human THP-1 cells; endogenous in cells; host or cells: differentiated THP-1
T2 sequence (O60602 21-858): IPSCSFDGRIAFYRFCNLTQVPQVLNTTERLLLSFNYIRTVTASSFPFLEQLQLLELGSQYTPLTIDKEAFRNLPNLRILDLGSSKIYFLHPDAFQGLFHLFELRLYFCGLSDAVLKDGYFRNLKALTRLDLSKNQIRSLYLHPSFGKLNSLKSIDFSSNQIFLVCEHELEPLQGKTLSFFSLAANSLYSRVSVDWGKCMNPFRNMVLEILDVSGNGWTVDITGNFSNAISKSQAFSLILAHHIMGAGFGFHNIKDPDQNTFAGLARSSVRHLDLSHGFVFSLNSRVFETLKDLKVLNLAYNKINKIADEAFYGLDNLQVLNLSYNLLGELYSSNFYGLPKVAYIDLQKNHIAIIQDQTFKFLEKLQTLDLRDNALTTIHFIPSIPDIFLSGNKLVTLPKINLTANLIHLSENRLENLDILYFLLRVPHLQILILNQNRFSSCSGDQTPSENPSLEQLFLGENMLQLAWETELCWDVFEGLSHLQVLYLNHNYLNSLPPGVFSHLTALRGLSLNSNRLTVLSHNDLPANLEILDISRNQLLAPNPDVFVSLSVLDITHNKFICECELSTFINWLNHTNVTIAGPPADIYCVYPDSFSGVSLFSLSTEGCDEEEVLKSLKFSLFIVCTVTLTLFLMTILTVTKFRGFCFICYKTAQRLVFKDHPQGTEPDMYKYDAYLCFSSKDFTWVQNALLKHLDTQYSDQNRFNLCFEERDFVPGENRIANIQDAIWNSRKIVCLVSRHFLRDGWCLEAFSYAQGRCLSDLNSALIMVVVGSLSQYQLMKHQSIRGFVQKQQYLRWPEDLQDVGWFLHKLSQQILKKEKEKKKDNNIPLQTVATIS
Protocol: as §1, §2, §3

IL-23-induced psoriasis = IL-23-induced psoriasis in mice; assay type: in vivo, mouse; conditions: 60 mg/kg oral daily; for Improvement of disease symptoms: versus anti-IL-17A antibody IP
Protocol: Six-week-old female C57BL/6J mice were assigned to the following treatment groups: vehicle (n = 5), IMQ (n = 5), ETI41 (n = 4) and ETI60 (n = 5). The mice were obtained from Orient Bio to evaluate the effects of ETI41 and ETI60 on induced psoriasis-like symptoms. This study was approved by the Institutional Animal Care and Use Committee (IACUC; approval no. 2014-0007). Psoriasis was induced using Aldara cream (3M Pharmaceuticals), which was applied topically at 62.5 mg/cm² daily from the day after hair removal until the fourth day. Mice were orally administered 60 mg/kg ETI41 or ETI60 daily commencing on the second day of induction. For IL-23-induced psoriasis, the mice were assigned to the following treatment groups: vehicle (n = 5), IL-23 (n = 5), ETI41 (n = 5), ETI60 (n = 5) and anti-IL-17 Ab (n = 5). Recombinant mouse IL-23 (0.25 mg/kg; BioLegend) was administered via intradermal injection around the ear daily, starting the day after hair removal and continuing until the eighth day. Positive control mice received intraperitoneal (IP) injections of 30 mg/kg anti-mouse IL-17A antibody (BioLegend) on days 2, 5 and 8, while test group mice were administered daily oral doses of 60 mg/kg of ETI41 or ETI60. Changes in body weight and Psoriasis Area and Severity Index (PASI) scores (erythema, scaling and thickness) were recorded daily. Mice were initially anesthetized in an induction chamber with a gas mixture of 4% isoflurane in 70:30 […] and O2, delivered at a flow rate of 0.8 l/min. Subsequently, the isoflurane concentration was reduced to 2%, and the mice were euthanized under anesthesia via endotracheal intubation. Skin samples were collected, fixed and stained with hematoxylin and eosin for histological analysis. Dermal and epidermal thicknesses were measured using a Leica DMi8 microscope (Leica). Immunohistochemical analyses were performed using primary antibodies against CD68 (R&D Systems, MAB101141), Ki-67 (Cell Signaling Technology, 12202), IL-17A (Novus Biologicals, NBP1-72027) and IL-23 (Novus Biologicals, NBP1-76697), followed by detection using biotinylated secondary antibodies (Vector Laboratories) and diaminobenzidine (Vector Laboratories) visualization. Fluorescence measurements for IL-23-induced psoriasis were performed using primary antibodies against CD68 and Ki-67, followed by Alexa Fluor-conjugated secondary antibodies (Life Technologies). Fluorescence was analyzed using a Leica DMi8 microscope.
Anti-IL17A antibody (Ab, 60 µg) was administered by IP injection as a positive control on days 2, 5 and 8. […] CD68 and Ki-67 expression patterns were determined in skin sections from a representative of each group using immunofluorescence. i Ear skin and epidermis thickness, CD68 expression and percentage of Ki-67 cells were examined from 4’,6-diamidino-2-phenylindole-stained cells. Statistical differences between the induced case and other cases were analyzed and verified using a one-tailed Student’s t-test (*P < 0.05, **P < 0.01, ***P < 0.001).
Next, we investigated the therapeutic efficacy of ETI41 and ETI60 in an IL-23-induced mouse model of psoriasis. Psoriasis was induced through intradermal injections of recombinant murine IL-23. As a positive control, an IL-17A antibody was administered intraperitoneally at a dose of 30 mg/kg on days 2, 5 and 8 (Fig. 4f). ETI41 or ETI60 was orally administered daily at a dose of 60 mg/kg. […] These findings indicate that ETI41 and ETI60 effectively alleviate the progression of psoriasis, either through direct involvement of TLR7 or through an indirect involvement of the IL-23–Th17 axis.

SMILES	Inhibition of TLR1/TLR2 (TNF-α secretion) (TLR1/TLR2)	Inhibition of TLR2/TLR6 (TNF-α secretion) (TLR2/TLR6)	Inhibition of TLR4 (TNF-α secretion) (TLR4)	Inhibition of TLR5 (TNF-α secretion) (TLR5)	Body weight (IL-23-induced psoriasis)	CD68 expression (IL-23-induced psoriasis)	Ear thickness (IL-23-induced psoriasis)	Epidermal thickness (IL-23-induced psoriasis)	Ki-67 keratinocyte proliferation (IL-23-induced psoriasis)	Improvement of disease symptoms (IL-23-induced psoriasis)
Cc1cc2c(N)c3c(nc2n1CCCN(C)C)CCCCCC3 [ETI41]	neither compound inhibited	neither compound inhibited	neither compound inhibited	neither compound inhibited	without significant differences	significantly decreased	significantly decreased	significantly decreased	significantly decreased	comparable to or better than the anti-IL-17A antibody
COc1ccc2c3c(N)c4c(nc3n(CCCN(C)C)c2c1)CCCC4 [ETI60]	neither compound inhibited	neither compound inhibited	neither compound inhibited	neither compound inhibited	without significant differences	significantly decreased	significantly decreased	significantly decreased	significantly decreased	comparable to or better than the anti-IL-17A antibody
